Reference: PubChem BioAssay (NCI)
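Growth conditions: 96-well plates. Treatment: test compound, 48 hours, 5 concentrations. Analysis: linear interpolation between bracketing concentrations; unreached endpoints set to highest concentration. TGI denotes the concentration required for complete inhibition of growth.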

Columns and labels:
Assay in all cases: growth of human tumour cells (NCI), 48 h
XF 498 CNS = tested on: XF 498 CNS
UO-31 renal = tested on: UO-31 renal
TK-10 renal = tested on: TK-10 renal
SR leukemia = tested on: SR leukemia
NCI-H460 lung = tested on: NCI-H460 lung
MALME-3M melanoma = tested on: MALME-3M melanoma
HOP-92 NSCLC = tested on: HOP-92 NSCLC
OVCAR-8 ovarian = tested on: OVCAR-8 ovarian
HCT-116 colon = tested on: HCT-116 colon
HCC-2998 colon = tested on: HCC-2998 colon
UACC-257 melanoma = tested on: UACC-257 melanoma
A549 NSCLC = tested on: A549 NSCLC
SF-268 CNS = tested on: SF-268 CNS
MOLT-4 leukemia = tested on: MOLT-4 leukemia
SW-620 colon = tested on: SW-620 colon
EKVX NSCLC = tested on: EKVX NSCLC
SK-MEL-2 melanoma = tested on: SK-MEL-2 melanoma
SNB-19 CNS = tested on: SNB-19 CNS
HOP-62 NSCLC = tested on: HOP-62 NSCLC
OVCAR-4 ovarian = tested on: OVCAR-4 ovarian
SK-MEL-28 melanoma = tested on: SK-MEL-28 melanoma
SK-MEL-5 melanoma = tested on: SK-MEL-5 melanoma
UACC-62 melanoma = tested on: UACC-62 melanoma
M14 melanoma = tested on: M14 melanoma
SN12C renal = tested on: SN12C renal
RPMI-8226 leukemia = tested on: RPMI-8226 leukemia
LOX IMVI melanoma = tested on: LOX IMVI melanoma
OVCAR-3 ovarian = tested on: OVCAR-3 ovarian
K-562 leukemia = tested on: K-562 leukemia
DMS 273 small cell lung = tested on: DMS 273 small cell lung
HT29 colon = tested on: HT29 colon
OVCAR-5 ovarian = tested on: OVCAR-5 ovarian
LXFL 529 NSCLC = tested on: LXFL 529 NSCLC
NCI-H23 lung = tested on: NCI-H23 lung
NCI-H522 lung = tested on: NCI-H522 lung
SF-295 CNS = tested on: SF-295 CNS
CCRF-CEM leukemia = tested on: CCRF-CEM leukemia
IGROV1 ovarian = tested on: IGROV1 ovarian
HCT-15 colon = tested on: HCT-15 colon
RXF 393 renal = tested on: RXF 393 renal
CAKI-1 renal = tested on: CAKI-1 renal
COLO 205 colon = tested on: COLO 205 colon
786-0 renal = tested on: 786-0 renal
U251 CNS = tested on: U251 CNS
KM12 colon = tested on: KM12 colon
SK-OV-3 ovarian = tested on: SK-OV-3 ovarian
KM20L2 colon = tested on: KM20L2 colon
M19-MEL melanoma = tested on: M19-MEL melanoma
SNB-75 CNS = tested on: SNB-75 CNS
HOP-18 NSCLC = tested on: HOP-18 NSCLC
A498 renal = tested on: A498 renal
HL-60(TB) leukemia = tested on: HL-60(TB) leukemia
ACHN renal = tested on: ACHN renal
DLD-1 colon = tested on: DLD-1 colon
DMS 114 small cell lung = tested on: DMS 114 small cell lung
SF-539 CNS = tested on: SF-539 CNS
NCI-H226 lung = tested on: NCI-H226 lung

Measured: TGI

CCOC(=O)N1C=NC23C(c4ccccc4)C(c4ccccc4)C12C(=O)N(C)C(=O)N3C (stereo not drawn)
not listed: DMS 114 small cell lung | SF-539 CNS | NCI-H226 lung
> 100 µM: all other assays above

CCc1cccc(C(C)C)c1NC(=O)C(=O)C1C(=O)NC(=O)NC1=O
not listed: MOLT-4 leukemia | SK-MEL-2 melanoma | DMS 273 small cell lung
> 100 µM: all other assays above
